Read-outs that look alike come from different tables or passages of the source.
Experiment: Tissue distribution of Compound A in mice with mammary C/16 adenocarcinomas (first method: liver, heart, kidney, lung, spleen, tumor)
Format: in vivo, C3H/HeN female mice
Conditions: for Kp at 1 h / Kp at 14 h / half-life / Tmax / Kp at 0.033 h / Kp at 0.083 h / Kp at 0.25 h / Kp at 4 h / Kp at 0.5 h / Kp at 24 h / Kp at 0.75 h: mouse, iv; for Kp at 0.5 h: 0.50 h
Description: Mammary C/16 adenocarcinomas were implanted in C3H/HeN female mice. At least 7 days later, 4α,10β-diacetoxy-2α-benzoyloxy-5β,20-epoxy-1β-hydroxy-7β,8β-methylene-9-oxo-19-nor-11-taxen-13α-yl (2R,3S)-3-tert-butoxycarbonylamino-2-hydroxy-3-phenylpropionate ("Compound A") was administered to groups of female mice at doses of 9.5, 15.4, 24.8, 40 or 60.5 mg/kg by intravenous injection under 0.4 or 0.5 ml/injection over 15 seconds. The body weight and date of implantation were recorded for each mouse. Blood and tissue samples were taken 2, 5, 15, 30 and 45 minutes and 1, 4, 14, 24 and 48 hours, after administration. The plasma was separated from the blood samples at 4° C. and frozen immediately. The tissue and tumors were weighed and frozen immediately (-20° C.).
The plasma and tissue samples were then analyzed for the concentration of Compound A. The plasma was assayed by high pressure liquid chromatography with spectrophotometric detection. For the tissue, liver, heart, kidney, lung, spleen and tumor tissue, samples were assayed by a first method, while a second method was used for the brain tissue analyzed. In the first method, 0.2 g of tissue was combined with 2 ml of sodium phosphate buffer 0.1 M (pH:7) and homogenized. The homogenate was centrifuged and 0.5 ml of supernatant was injected into the chromatographic column. In the second method, 10 μl of standard solution was combined with 0.2 g of brain tissue. 2 ml of methanol/5% perchloric acid (50/50) were added and the mixture was homogenized. The homogenate was centrifuged and 100 μl of supernatant was injected into the chromatographic column.

[1] = kidney/plasma, 40 mg/kg, 40 μg/kg [sic], mice with tumors, single mice, read-out: Tissue/Plasma Ratio, KIDNEY
[2] = liver/plasma, 40 mg/kg, mice with tumors, single mice, read-out: Tissue/Plasma Ratio, LIVER
[3] = lung/plasma, 40 mg/kg, 40 μg/kg [sic], mice with tumors, single mice, read-out: Tissue/Plasma Ratio, LUNG
[4] = spleen/plasma, 40 mg/kg, mice with tumors, single mice, read-out: Tissue/Plasma Ratio, SPLEEN
[5] = tumor/plasma, 40 mg/kg, mice with tumors, single mice, read-out: Tissue/Plasma Ratio, TUMOR
[6] = tumor/plasma, dose 9.5, single mice, read-out: Tumor/Plasma Ratio
[7] = tumor/plasma, dose 15.4, single mice, MEAN=b373, read-out: Tumor/Plasma Ratio
[8] = tumor/plasma, dose 24.8, single mice, read-out: Tumor/Plasma Ratio
[9] = tumor/plasma, dose 40, single mice, read-out: Tumor/Plasma Ratio
[10] = tumor/plasma, dose 60.5, single mice, read-out: Tumor/Plasma Ratio

CC(=O)O[C@H]1C(=O)[C@]23C[C@H]2C[C@H]2OC[C@@]2(OC(C)=O)[C@H]3[C@H](OC(=O)c2ccccc2)[C@]2(O)C[C@H](OC(=O)[C@H](O)[C@@H](NC(=O)OC(C)(C)C)c3ccccc3)C(C)=C1C2(C)C [Compound A, 4α,10β-diacetoxy-2α-benzoyloxy-5β,20-epoxy-1β-hydroxy-7β,8β-methylene-9-oxo-19-nor-11-taxen-13α-yl (2R,3S)-3-tert-butoxycarbonylamino-2-hydroxy-3-phenylpropionate]
Kp at 1 h [1]: 2.17 | Kp at 14 h [1]: 2.56 | half-life (liver, 40 mg/kg, 40 mg/kg i.v., read-out: half-life of the distribution phase, liver (converted)): 17.4 min | half-life (liver, 40 mg/kg, read-out: t 1/2, Liver (converted)): 186 min | Tmax (liver, 40 mg/kg i.v., read-out: time of maximum concentration, liver): 4.98 min | Kp at 0.033 h [2]: 1.54 | Kp at 0.083 h [2]: 3.07 | Kp at 0.25 h [2]: 1.79 | Kp at 1 h [2]: 1.71 | Kp at 4 h [2]: 0.93 | Kp at 14 h (liver/plasma, 40 mg/kg, mice with tumors, single mouse, read-out: Tissue/Plasma Ratio, LIVER): 1.62 | half-life (lung, 40 mg/kg, 40 mg/kg i.v., read-out: half-life of the distribution phase, lung (converted)): 20.4 min | half-life (lung, 40 mg/kg, read-out: t 1/2, Lung (converted)): 174 min | Tmax (lung, 40 mg/kg i.v., read-out: time of maximum concentration, lung): 4.98 min | Kp at 0.033 h [3]: 0.33 | Kp at 0.083 h [3]: 0.79 | Kp at 0.25 h [3]: 0.95 | Kp at 0.5 h [3]: 1.27 | Kp at 1 h [3]: 1 | Kp at 4 h [3]: 1.43 | Kp at 14 h [3]: 0.81 | half-life (spleen, 40 mg/kg, 40 mg/kg i.v., read-out: half-life of the distribution phase, spleen (converted)): 13.8 min | half-life (spleen, 40 mg/kg, read-out: t 1/2, Spleen (converted)): 450 min | Tmax (spleen, 40 mg/kg i.v., read-out: time of maximum concentration, spleen): 4.98 min | Kp at 0.033 h [4]: 0.46 | Kp at 0.25 h [4]: 0.85 | Kp at 0.5 h [4]: 1.24 | Kp at 1 h [4]: 1.1 | Kp at 4 h [4]: 1.72 | Kp at 14 h [4]: 2.37 | half-life (tissues, 40 mg/kg, 40 mg/kg i.v., tissues other than brain, read-out: half-life in the other tissues): 96 to 558 min | half-life (tissues, 40 mg/kg, 40 mg/kg i.v., tissues tested except tumor and brain, read-out: elimination half-life, slower phase): 96 to 450 min | half-life (tumor, 40 mg/kg, read-out: t 1/2, Tumor (converted)): 558 min | Tmax (tumor, 40 mg/kg i.v., read-out: time of maximum concentration, tumor): 15 min | Kp at 0.033 h [5]: 0.2 | Kp at 0.083 h [5]: 0.37 | Kp at 0.25 h [5]: 0.58 | Kp at 0.5 h [5]: 0.78 | Kp at 1 h [5]: 0.95 | Kp at 4 h [5]: 1.8 | Kp at 24 h [5]: 2.79 | Kp at 0.033 h [6]: 0.24 | Kp at 0.25 h [6]: 0.51 | Kp at 0.75 h [6]: 0.94 | Kp at 1 h [6]: 2.02 | Kp at 4 h [6]: 3.45 | Kp at 0.033 h [7]: 0.23 | Kp at 0.083 h [7]: 0.28 | Kp at 0.25 h [7]: 0.6 | Kp at 0.5 h [7]: 0.97 | Kp at 0.75 h [7]: 1.75 | Kp at 1 h [7]: 1.83 | Kp at 4 h [7]: 1.9 | Kp at 0.033 h [8]: 0.13 | Kp at 0.083 h [8]: 0.28 | Kp at 0.25 h [8]: 0.71 | Kp at 0.75 h [8]: 1.14 | Kp at 1 h [8]: 1.29 | Kp at 4 h [8]: 1.61 | Kp at 0.033 h [9]: 0.2 | Kp at 0.083 h [9]: 0.37 | Kp at 0.25 h [9]: 0.58 | Kp at 0.5 h [9]: 0.78 | Kp at 1 h [9]: 0.95 | Kp at 4 h [9]: 1.8 | Kp at 24 h [9]: 2.79 | Kp at 0.083 h [10]: 0.19 | Kp at 0.25 h [10]: 0.39 | Kp at 0.5 h [10]: 0.62 | Kp at 4 h [10]: 2.48 | Kp at 24 h (tumor/plasma, dose 60.5, single mouse, read-out: Tumor/Plasma Ratio): 13.3 | pharmacokinetics in mice with mammary tumors, linearity (range of doses administered): similarly linear

From patent publication US6156789A, “Method for treating abnormal cell proliferation in the brain” (Rhone-Poulenc Rorer S.A., priority 1998, dated 2000)
